How the values were obtained:
[1] = target: T1, cyclooxygenase (Homo sapiens, UniProt P23219); assay: Test b): heparinised human blood challenged with A23187, TxB₂ radioimmunoassay; type: cell-based; settings: read-out: IC₅₀ (TxB₂)
T1 construct: incubating a test compound with heparinised human blood; endogenous in cells; host or cells: blood cells (platelets) in heparinised human whole blood
Experimental: (§1) As stated previously, the heterocyclic cycloalkanes of the formula I are inhibitors of the enzyme 5-LO. […] This test provides a measure of the intrinsic inhibitory properties against soluble 5-LO in an extracellular environment. • b) An in vitro assay system involving incubating a test compound with heparinised human blood, prior to challenge with the calcium ionophore A23187 and then indirectly measuring the inhibitory effects on 5-LO by assaying the amount of LTB₄ using the specific radioimmunoassay described by Carey and Forder (F. Carey and R.A. Forder, Brit. […] The effects of a test compound on the enzyme cyclooxygenase (which is involved in the alternative metabolic pathway for arachidonic acid and gives rise to prostaglandins, thromboxanes and related metabolites) may be measured at the same time using the specific radioimmunoassay for thromboxane B₂(TxB₂) described by Carey and Forder (see above). […] It permits the selectivity of the inhibitory effect on 5-LO or cyclooxygenase to be assessed. • c) An ex vivo assay system, which is a variation of test b) above, involving administration of a test compound (usually orally as the suspension produced when a solution of the test compound in dimethylsulphoxide is added to carboxymethylcellulose), blood collection, heparinisation, challenge with A23187 and radioimmunoassay of LTB₄ and TxB₂. […]

[2] = system: 5-LO; assay: Test c): ex vivo assay, compound administered, blood collected, A23187 challenge, LTB₄ radioimmunoassay; type: in vivo
Experimental: as §1

T1 sequence (P23219 24-599): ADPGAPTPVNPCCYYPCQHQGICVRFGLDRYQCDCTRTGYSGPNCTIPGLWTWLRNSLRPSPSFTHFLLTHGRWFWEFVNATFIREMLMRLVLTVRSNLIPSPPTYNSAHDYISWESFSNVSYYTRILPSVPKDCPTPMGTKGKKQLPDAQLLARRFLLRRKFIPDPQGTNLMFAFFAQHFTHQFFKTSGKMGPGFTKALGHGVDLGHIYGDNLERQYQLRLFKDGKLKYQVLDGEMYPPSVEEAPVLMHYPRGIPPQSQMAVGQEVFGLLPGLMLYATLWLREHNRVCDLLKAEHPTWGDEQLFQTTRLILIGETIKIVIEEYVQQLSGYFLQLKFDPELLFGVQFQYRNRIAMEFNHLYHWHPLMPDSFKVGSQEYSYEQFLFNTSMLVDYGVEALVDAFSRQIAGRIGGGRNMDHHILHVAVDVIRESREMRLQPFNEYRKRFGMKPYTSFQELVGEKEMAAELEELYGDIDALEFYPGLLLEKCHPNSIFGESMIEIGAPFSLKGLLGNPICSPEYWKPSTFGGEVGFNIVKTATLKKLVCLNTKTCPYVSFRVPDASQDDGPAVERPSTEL

Q: How did the IC50 [1] turn out when `CO[C@@H]1CCC[C@]1(OC)c1cccc(OCC#Cc2ccccn2)c1` (relative stereo) [Example 2, trans-1,2-dimethoxy-1-[3-(3-(2-pyridyl)prop-2-yn-1-yloxy)phenyl]cyclopentane] was run?
A: The IC50 was > 40 µM.

Q: And the “oral ED₅₀(LTB₄)” value [2]?
A: The value was < 100 mg/kg.

— patent publication EP0385663B1, “Heterocyclic cycloalkanes as inhibitors of 5-lipoxygenase” (ZENECA LIMITED, priority 1989, dated 1990)
